What all share (format): in vivo
The test system of test [1] is Alopecurus myosuroides (ALOMY). The test is described as follows: Example A pre-emergence herbicidal activity. To be noted: rate 250 g/ha, evaluated 19 or 20 days later. How it is done:
(§1) Seeds of a variety of test species were sown in standard soil in pots. After cultivation for one day (pre-emergence) or after 10 days cultivation (post-emergence) under controlled conditions in a glasshouse, the plants were sprayed with an aqueous spray solution derived from the formulation of the technical active ingredient in 0.6 ml acetone and 45 ml formulation solution containing 10.6% Emulsogen EL (Registry number 61791-12-6), 42.2% N-methylpyrrolidone, 42.2% dipropylene glycol monomethyl ether (Registry number 34590-94-8) and 0.2% X-77 (Registry number 11097-66-8). The test plants were then grown in a greenhouse under optimum conditions until, 14 or 15 days later for post-emergence and 19 or 20 days for pre-emergence, the test was evaluated (100=total damage to plant; 0=no damage to plant). Alopecurus myosuroides (ALOMY), Avena fatua (AVEFA), Lolium perenne (LOLPE), Setaria faberi (SETFA), Digitaria sanguinalis (DIGSA), Echinochloa crus-galli (ECHCG)

The subject of test [2] is Avena fatua (AVEFA). The experiment in a line: Example A pre-emergence herbicidal activity. The following applies: rate 250 g/ha, evaluated 19 or 20 days later. How it is done: as §1
For test [3], the system named is Digitaria sanguinalis (DIGSA). The experiment in a line: Example A pre-emergence herbicidal activity. The following applies: rate 250 g/ha, evaluated 19 or 20 days later. The protocol:
as §1

Test [4] concerns Echinochloa crus-galli (ECHCG). The experiment in a line: Example A pre-emergence herbicidal activity. To be noted: rate 250 g/ha, evaluated 19 or 20 days later. The protocol:
as §1

The subject of test [5] is Lolium perenne (LOLPE). The test is described as follows: Example A pre-emergence herbicidal activity. The following applies: rate 250 g/ha, evaluated 19 or 20 days later. How it is done:
as §1

Test [6] relates to Setaria faberi (SETFA). The test is described as follows: Example A pre-emergence herbicidal activity. To be noted: rate 250 g/ha, evaluated 19 or 20 days later. How it is done:
as §1

Test [7] has as its system Alopecurus myosuroides (ALOMY). The test is described as follows: Example A post-emergence herbicidal activity. To be noted: rate 125 g/ha, evaluated 14 or 15 days later. How it is done:
as §1

Test [8] has as its system Avena fatua (AVEFA). The experiment in a line: Example A post-emergence herbicidal activity. The following applies: rate 125 g/ha, evaluated 14 or 15 days later. The protocol:
as §1

Test [9] relates to Digitaria sanguinalis (DIGSA). The experiment in a line: Example A post-emergence herbicidal activity. To be noted: rate 125 g/ha, evaluated 14 or 15 days later. The protocol:
as §1

In test [10] the test system is Echinochloa crus-galli (ECHCG). The test is described as follows: Example A post-emergence herbicidal activity. The following applies: rate 125 g/ha, evaluated 14 or 15 days later. How it is done:
as §1

Test [11] deals with Lolium perenne (LOLPE). The test is described as follows: Example A post-emergence herbicidal activity. The following applies: rate 125 g/ha, evaluated 14 or 15 days later. How it is done:
as §1

The subject of test [12] is Setaria faberi (SETFA). The test is described as follows: Example A post-emergence herbicidal activity. To be noted: rate 125 g/ha, evaluated 14 or 15 days later. How it is done: as §1

In the case of `Cc1[se]c(-c2ccc(Cl)cc2)nc1C1C(=O)[C@@H]2CC[C@@H](C2)C1=O` (stereo partly drawn) [Compound T1, 3-[2-(4-chlorophenyl)-5-methylselenazol-4-yl]bicyclo[3.2.1]octane-2,4-dione], the “Pre-Emergence Activity ALOMY (100=total damage to plant; 0=no damage to plant)” value in [1] turned out to be 60. In test [2], the “Pre-Emergence Activity AVEFA (100=total damage to plant; 0=no damage to plant)” value was 20. Besides, the “Pre-Emergence Activity DIGSA (100=total damage to plant; 0=no damage to plant)” value in [3] turned out to be 60. Further, the “Pre-Emergence Activity ECHCG (100=total damage to plant; 0=no damage to plant)” value in [4] was determined as 60. The “Pre-Emergence Activity LOLPE (100=total damage to plant; 0=no damage to plant)” value in test [5] is 80. Moreover, the “Pre-Emergence Activity SETFA (100=total damage to plant; 0=no damage to plant)” value in test [6] is 70. The “Post-Emergence Activity ALOMY (100=total damage to plant; 0=no damage to plant)” value in test [7] turned out to be 70. For the same molecule, in test [8], the “Post-Emergence Activity AVEFA (100=total damage to plant; 0=no damage to plant)” value worked out at 70. Also, the “Post-Emergence Activity DIGSA (100=total damage to plant; 0=no damage to plant)” value in [9] stood at 80. In addition, the “Post-Emergence Activity ECHCG (100=total damage to plant; 0=no damage to plant)” value in test [10] is listed as 100. The “Post-Emergence Activity LOLPE (100=total damage to plant; 0=no damage to plant)” value in [11] is 30. Besides, the “Post-Emergence Activity SETFA (100=total damage to plant; 0=no damage to plant)” value in [12] was 90.
Regarding `Cc1sc(-c2ccc(Cl)cc2)cc1C1C(=O)[C@@H]2CC[C@@H](C2)C1=O` (stereo partly drawn) [Compound T23], in test [1], the “Pre-Emergence Activity ALOMY (100=total damage to plant; 0=no damage to plant)” value amounted to 30. Also, the “Pre-Emergence Activity AVEFA (100=total damage to plant; 0=no damage to plant)” value in test [2] stood at 50. Also, in [3], the “Pre-Emergence Activity DIGSA (100=total damage to plant; 0=no damage to plant)” value stood at 0. In addition, in [4], the “Pre-Emergence Activity ECHCG (100=total damage to plant; 0=no damage to plant)” value is 0. Also, the “Pre-Emergence Activity LOLPE (100=total damage to plant; 0=no damage to plant)” value in [5] came out at 0. Besides, the “Pre-Emergence Activity SETFA (100=total damage to plant; 0=no damage to plant)” value in test [6] amounted to 0. Besides, in [7], the “Post-Emergence Activity ALOMY (100=total damage to plant; 0=no damage to plant)” value was found to be 80. Moreover, the “Post-Emergence Activity AVEFA (100=total damage to plant; 0=no damage to plant)” value in test [8] stood at 70. Moreover, the “Post-Emergence Activity DIGSA (100=total damage to plant; 0=no damage to plant)” value in test [9] was 90. The “Post-Emergence Activity ECHCG (100=total damage to plant; 0=no damage to plant)” value in [10] was found to be 90. For the same molecule, the “Post-Emergence Activity LOLPE (100=total damage to plant; 0=no damage to plant)” value in [11] is given as 70. In test [12], the “Post-Emergence Activity SETFA (100=total damage to plant; 0=no damage to plant)” value is given as 100.
Turning to `COc1ccc(-c2nc(C3C(=O)[C@@H]4CC[C@@H](C4)C3=O)c(C)s2)cn1` (stereo partly drawn) [Compound T18], the “Pre-Emergence Activity ALOMY (100=total damage to plant; 0=no damage to plant)” value in test [1] was determined as 0. In addition, in test [2], the “Pre-Emergence Activity AVEFA (100=total damage to plant; 0=no damage to plant)” value amounted to 0. Moreover, in [3], the “Pre-Emergence Activity DIGSA (100=total damage to plant; 0=no damage to plant)” value came out at 30. For the same molecule, the “Pre-Emergence Activity ECHCG (100=total damage to plant; 0=no damage to plant)” value in test [4] was 20. In test [5], the “Pre-Emergence Activity LOLPE (100=total damage to plant; 0=no damage to plant)” value is given as 0. In test [6], the “Pre-Emergence Activity SETFA (100=total damage to plant; 0=no damage to plant)” value was 20. The “Post-Emergence Activity ALOMY (100=total damage to plant; 0=no damage to plant)” value in [7] is on record as 40. Besides, the “Post-Emergence Activity AVEFA (100=total damage to plant; 0=no damage to plant)” value in test [8] came out at 30. Moreover, in test [9], the “Post-Emergence Activity DIGSA (100=total damage to plant; 0=no damage to plant)” value is 60. Also, in [10], the “Post-Emergence Activity ECHCG (100=total damage to plant; 0=no damage to plant)” value was determined as 50. Further, the “Post-Emergence Activity LOLPE (100=total damage to plant; 0=no damage to plant)” value in [11] came to 20. The “Post-Emergence Activity SETFA (100=total damage to plant; 0=no damage to plant)” value in test [12] is recorded as 60.
For the molecule `CCc1sc(-c2ccc(Cl)cc2)nc1C1C(=O)[C@@H]2CC[C@@H](C2)C1=O` (stereo partly drawn) [Compound T19, 3-[2-(4-chlorophenyl)-5-ethylthiazol-4-yl]bicyclo[3.2.1]octane-2,4-dione], the “Pre-Emergence Activity ALOMY (100=total damage to plant; 0=no damage to plant)” value in test [1] turned out to be 100. In addition, the “Pre-Emergence Activity AVEFA (100=total damage to plant; 0=no damage to plant)” value in [2] was 100. Moreover, the “Pre-Emergence Activity DIGSA (100=total damage to plant; 0=no damage to plant)” value in test [3] came to 100. Besides, in test [4], the “Pre-Emergence Activity ECHCG (100=total damage to plant; 0=no damage to plant)” value stood at 100. For the same molecule, the “Pre-Emergence Activity LOLPE (100=total damage to plant; 0=no damage to plant)” value in [5] is reported as 100. Besides, the “Pre-Emergence Activity SETFA (100=total damage to plant; 0=no damage to plant)” value in test [6] was 100. The “Post-Emergence Activity ALOMY (100=total damage to plant; 0=no damage to plant)” value in test [7] came to 100. The “Post-Emergence Activity AVEFA (100=total damage to plant; 0=no damage to plant)” value in test [8] amounted to 100. Also, in [9], the “Post-Emergence Activity DIGSA (100=total damage to plant; 0=no damage to plant)” value is given as 100. In addition, the “Post-Emergence Activity ECHCG (100=total damage to plant; 0=no damage to plant)” value in test [10] is 100. Moreover, in test [11], the “Post-Emergence Activity LOLPE (100=total damage to plant; 0=no damage to plant)” value is 80. Moreover, the “Post-Emergence Activity SETFA (100=total damage to plant; 0=no damage to plant)” value in test [12] is on record as 100.
As to `Cc1sc(-c2ccc(Cl)nc2)nc1C1C(=O)[C@@H]2CC[C@@H](C2)C1=O` (stereo partly drawn) [Compound T16], in [1], the “Pre-Emergence Activity ALOMY (100=total damage to plant; 0=no damage to plant)” value was found to be 10. Besides, in test [2], the “Pre-Emergence Activity AVEFA (100=total damage to plant; 0=no damage to plant)” value is reported as 20. Also, the “Pre-Emergence Activity DIGSA (100=total damage to plant; 0=no damage to plant)” value in test [3] was 80. For the same molecule, the “Pre-Emergence Activity ECHCG (100=total damage to plant; 0=no damage to plant)” value in [4] is listed as 70. Further, the “Pre-Emergence Activity LOLPE (100=total damage to plant; 0=no damage to plant)” value in test [5] amounted to 20. In [6], the “Pre-Emergence Activity SETFA (100=total damage to plant; 0=no damage to plant)” value is reported as 80. Further, the “Post-Emergence Activity ALOMY (100=total damage to plant; 0=no damage to plant)” value in test [7] came to 20. Besides, the “Post-Emergence Activity AVEFA (100=total damage to plant; 0=no damage to plant)” value in test [8] is recorded as 40. Further, in [9], the “Post-Emergence Activity DIGSA (100=total damage to plant; 0=no damage to plant)” value is listed as 70. For the same molecule, the “Post-Emergence Activity ECHCG (100=total damage to plant; 0=no damage to plant)” value in [10] is given as 50. For the same molecule, the “Post-Emergence Activity LOLPE (100=total damage to plant; 0=no damage to plant)” value in [11] is recorded as 20. In test [12], the “Post-Emergence Activity SETFA (100=total damage to plant; 0=no damage to plant)” value was found to be 60.

(Values after patent US8598365B2, “Herbicides” (Syngenta Limited, priority 2007, dated 2013).)
